Active and inactive are the calls of the source.
What was measured:
[1] = inhibitors of intracellular T. cruzi replication, confirmation, NIH3T3 host cells, beta-gal luminescence (AID 2044); format: functional, cell-based;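 note: intracellular parasites grown in NIH/3T3 mouse fibroblasts as host cells; luminescent beta-galactosidase reporter signal from transgenic T. cruzi replicating inside host cells; inhibitors lower the luminescence signal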
[2] = target: T1, Replicative DNA helicase DnaB (Mycobacterium tuberculosis, UniProt P9WMR3); assay: DnaB intein splicing inhibitors, dose response, biochemical, cell-free fluorescence (AID 449749); format: functional
T1 sequence (P9WMR3 whole entry): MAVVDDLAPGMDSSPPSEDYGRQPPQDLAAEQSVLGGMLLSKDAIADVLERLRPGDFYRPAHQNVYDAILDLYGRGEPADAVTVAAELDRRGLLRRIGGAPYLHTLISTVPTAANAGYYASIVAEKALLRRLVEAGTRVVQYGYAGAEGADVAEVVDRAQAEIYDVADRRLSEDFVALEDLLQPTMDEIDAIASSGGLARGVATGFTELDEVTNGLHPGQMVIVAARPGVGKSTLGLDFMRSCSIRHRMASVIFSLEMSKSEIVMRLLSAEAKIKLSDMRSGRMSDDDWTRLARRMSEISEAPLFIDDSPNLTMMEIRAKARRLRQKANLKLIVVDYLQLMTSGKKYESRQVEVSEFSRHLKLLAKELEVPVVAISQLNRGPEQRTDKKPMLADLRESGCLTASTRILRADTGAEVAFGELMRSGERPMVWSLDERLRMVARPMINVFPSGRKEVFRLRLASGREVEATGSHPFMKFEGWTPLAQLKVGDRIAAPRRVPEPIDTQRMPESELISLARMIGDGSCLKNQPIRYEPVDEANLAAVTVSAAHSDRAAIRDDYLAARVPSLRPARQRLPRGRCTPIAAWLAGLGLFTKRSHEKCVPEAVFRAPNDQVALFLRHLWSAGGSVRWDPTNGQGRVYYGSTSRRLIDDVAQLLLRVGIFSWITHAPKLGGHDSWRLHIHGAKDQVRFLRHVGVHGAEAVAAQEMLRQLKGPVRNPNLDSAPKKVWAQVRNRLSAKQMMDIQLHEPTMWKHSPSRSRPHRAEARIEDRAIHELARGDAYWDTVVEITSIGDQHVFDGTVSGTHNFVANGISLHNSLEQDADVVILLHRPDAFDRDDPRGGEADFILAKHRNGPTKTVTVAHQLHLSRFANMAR

[3] = THP-1 cell cytotoxicity, dose response, cytotoxicity control for non-replicating M. tuberculosis project (AID 489025); format: functional
[4] = cytotoxicity toward NIH3T3 fibroblasts, dose response, counter-screen, cell-based, ATP luminescence, mouse fibroblasts (AID 2010); format: functional;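 note: cells exposed to compound for about 90 hours before reading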
[5] = target: Heat shock protein HSP 90-alpha (Homo sapiens, UniProt P07900); format: functional, organism-based
[6] = target: T2, Sphingosine 1-phosphate receptor 4 (Homo sapiens, UniProt O95977); assay: Fluorescence dose response cell-based high throughput screening assay for antagonists of the Sphingosine 1-Phosphate Receptor 4 (S1P4). [Related pubchem assays: 1524 (Confirmation in triplicates.), 1510 (Primary screen.)]; format: functional
T2 sequence (O95977 whole entry): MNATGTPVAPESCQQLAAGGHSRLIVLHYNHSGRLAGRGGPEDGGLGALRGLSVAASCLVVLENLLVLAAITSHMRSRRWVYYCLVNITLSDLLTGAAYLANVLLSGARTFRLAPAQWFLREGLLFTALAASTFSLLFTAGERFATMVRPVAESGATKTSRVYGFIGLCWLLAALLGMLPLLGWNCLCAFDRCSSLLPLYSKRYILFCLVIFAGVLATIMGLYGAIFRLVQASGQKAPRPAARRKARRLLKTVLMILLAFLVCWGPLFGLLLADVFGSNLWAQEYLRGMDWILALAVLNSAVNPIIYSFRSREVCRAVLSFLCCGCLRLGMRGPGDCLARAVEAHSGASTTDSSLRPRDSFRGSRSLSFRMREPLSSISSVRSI

[7] = HepG2 cell cytotoxicity, dose response, cytotoxicity control for non-replicating M. tuberculosis project (AID 489018); format: functional; conditions: Mycobacterium tuberculosis
[8] = Vero E6 cell cytotoxicity, dose response, cytotoxicity control for non-replicating M. tuberculosis project, secondary assay (AID 492998); format: functional, VeroE6; conditions: Vero C1008
Protein RecA = target: T3, Protein RecA (Mycobacterium tuberculosis, UniProt P9WHJ3); assay: Fluorescence Cell-Free Homogeneous Dose Retest to Identify Inhibitors of RecA-Intein Splicing Activity. [Related pubchem assays (depositor defined):AID2097, AID2223, AID489010, AID492950]; format: functional
T3 sequence (P9WHJ3 whole entry): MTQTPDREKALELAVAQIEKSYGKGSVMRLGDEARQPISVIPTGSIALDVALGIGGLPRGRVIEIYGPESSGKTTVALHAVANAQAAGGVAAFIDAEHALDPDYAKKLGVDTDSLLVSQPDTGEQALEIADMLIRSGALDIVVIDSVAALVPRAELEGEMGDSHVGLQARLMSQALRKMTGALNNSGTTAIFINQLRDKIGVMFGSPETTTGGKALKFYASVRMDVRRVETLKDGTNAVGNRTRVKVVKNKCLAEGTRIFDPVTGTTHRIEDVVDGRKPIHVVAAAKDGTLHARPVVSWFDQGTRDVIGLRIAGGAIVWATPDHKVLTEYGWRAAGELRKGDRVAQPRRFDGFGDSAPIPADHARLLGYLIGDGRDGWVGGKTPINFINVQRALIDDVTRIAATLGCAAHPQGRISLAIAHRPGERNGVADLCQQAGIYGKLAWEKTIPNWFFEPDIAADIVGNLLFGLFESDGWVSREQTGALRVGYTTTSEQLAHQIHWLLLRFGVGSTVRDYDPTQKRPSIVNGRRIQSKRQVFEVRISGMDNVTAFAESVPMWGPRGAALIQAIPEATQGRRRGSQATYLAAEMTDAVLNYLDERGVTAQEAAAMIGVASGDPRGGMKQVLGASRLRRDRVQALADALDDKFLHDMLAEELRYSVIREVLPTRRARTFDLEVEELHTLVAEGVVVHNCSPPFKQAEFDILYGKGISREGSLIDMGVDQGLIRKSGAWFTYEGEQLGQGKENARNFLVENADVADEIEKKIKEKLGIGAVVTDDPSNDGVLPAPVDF

CHO = assay: cytotoxicity in TLR9-MyD88 CHO cells, dose response, cytotoxicity control for TLR9-MyD88 binding inhibitor project, cell-based, luminescence (AID 588339); format: functional, hamster; conditions: Cricetulus griseus;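 note: CHO cells stably coexpressing TLR9 and MyD88 fusions from primary screen; compound exposure lasted 48 hours before viability readout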
INS1 = assay: beta cell apoptosis inhibitors, cytokine rescue, dose response, luminescence, retest (AID 449756); format: functional, cell-based; conditions: Rattus norvegicus;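 note: cell death triggered by IL-1 beta plus TNF-alpha plus IFN-gamma mixture; protective hits raise ATP signal compared with cytokine alone wells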
cells = format: functional
Beta Lactamase = Beta Lactamase (Pseudomonas aeruginosa, UniProt Q932Y6); assay: beta-lactamase reporter inhibitor potency, dose response, artefact control for TLR9-MyD88 binding inhibitor project, BLA reporter cells, FRET fluorescence (AID 588341); format: cell-based;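 note: cell based assay in CHO-K1 cells stably expressing beta-lactamase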
[9] = target: Sphingosine 1-phosphate receptor 1 (Homo sapiens, UniProt P21453); format: functional;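 note: Tango beta-arrestin reporter U2OS cells stimulated with S1P near its EC80; inhibitor potency meaning antagonism of receptor activation by the natural agonist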
HeLa = assay: Cytotoxicity counterscreen assay for transcriptional activators of heat shock protein 70 (Hsp70). [Related pubchem assays: 1203, 1252 ]; format: functional; conditions: Homo sapiens;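 note: cells exposed to compound for 16 hours before readout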
NS3 = NS3 (Hepatitis C virus, UniProt A3EZJ3); assay: PubChem AID 2173; set-up: species or system Hepacivirus hominis
[10] = HEp-2 cell cytotoxicity, dose response, cytotoxicity control for RSV inhibitor project, HTS (AID 2410); format: functional; conditions: human respiratory syncytial virus
[11] = inhibitors of Bluetongue virus cytopathic effect, confirmation, arbovirus, BSR cells (AID 1250); format: functional;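 note: protection from viral cytopathic effect measured as cell viability by ATP luminescence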
[12] = target: T4, Calpain-2 catalytic subunit (Sus scrofa, UniProt P43367); assay: pig calpain II inhibitor potency, dose response, biochemical, fluorogenic peptide substrate (AID 1420); format: functional
T4 sequence (P43367 whole entry): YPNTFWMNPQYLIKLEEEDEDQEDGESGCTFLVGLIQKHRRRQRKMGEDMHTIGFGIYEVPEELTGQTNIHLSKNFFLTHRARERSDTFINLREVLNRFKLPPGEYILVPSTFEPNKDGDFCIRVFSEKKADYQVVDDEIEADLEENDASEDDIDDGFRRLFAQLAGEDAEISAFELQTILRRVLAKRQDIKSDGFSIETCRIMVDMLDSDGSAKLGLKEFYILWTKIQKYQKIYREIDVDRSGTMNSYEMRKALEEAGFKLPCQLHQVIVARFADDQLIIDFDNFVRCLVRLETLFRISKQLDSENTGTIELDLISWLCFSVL

Sequence of Beta Lactamase (Q932Y6 whole entry): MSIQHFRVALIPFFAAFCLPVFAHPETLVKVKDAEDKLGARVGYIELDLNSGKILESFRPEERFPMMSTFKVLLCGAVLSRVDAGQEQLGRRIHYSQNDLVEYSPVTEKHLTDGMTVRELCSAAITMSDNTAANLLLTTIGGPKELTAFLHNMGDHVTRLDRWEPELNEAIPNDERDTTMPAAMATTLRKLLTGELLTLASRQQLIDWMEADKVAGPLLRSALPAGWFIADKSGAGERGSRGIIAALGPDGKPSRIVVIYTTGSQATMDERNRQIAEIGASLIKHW
Sequence of NS3 (A3EZJ3 whole entry): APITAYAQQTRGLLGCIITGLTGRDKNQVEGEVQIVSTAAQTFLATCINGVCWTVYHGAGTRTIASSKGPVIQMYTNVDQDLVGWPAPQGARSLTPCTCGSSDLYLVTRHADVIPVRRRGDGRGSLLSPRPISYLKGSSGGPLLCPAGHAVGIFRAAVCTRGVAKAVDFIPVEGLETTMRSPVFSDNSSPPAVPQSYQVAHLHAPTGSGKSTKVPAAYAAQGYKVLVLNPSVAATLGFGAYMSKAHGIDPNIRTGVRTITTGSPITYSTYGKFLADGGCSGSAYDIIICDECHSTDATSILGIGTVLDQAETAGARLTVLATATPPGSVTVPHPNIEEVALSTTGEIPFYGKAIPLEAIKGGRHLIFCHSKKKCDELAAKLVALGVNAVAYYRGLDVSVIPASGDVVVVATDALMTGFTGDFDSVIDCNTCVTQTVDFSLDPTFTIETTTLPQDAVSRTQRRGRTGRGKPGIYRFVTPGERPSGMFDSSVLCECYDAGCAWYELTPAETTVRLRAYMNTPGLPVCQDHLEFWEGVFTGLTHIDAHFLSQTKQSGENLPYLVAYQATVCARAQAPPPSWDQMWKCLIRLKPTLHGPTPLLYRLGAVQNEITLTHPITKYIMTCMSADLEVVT
Sequence of Sphingosine 1-phosphate receptor 1 (P21453 whole entry): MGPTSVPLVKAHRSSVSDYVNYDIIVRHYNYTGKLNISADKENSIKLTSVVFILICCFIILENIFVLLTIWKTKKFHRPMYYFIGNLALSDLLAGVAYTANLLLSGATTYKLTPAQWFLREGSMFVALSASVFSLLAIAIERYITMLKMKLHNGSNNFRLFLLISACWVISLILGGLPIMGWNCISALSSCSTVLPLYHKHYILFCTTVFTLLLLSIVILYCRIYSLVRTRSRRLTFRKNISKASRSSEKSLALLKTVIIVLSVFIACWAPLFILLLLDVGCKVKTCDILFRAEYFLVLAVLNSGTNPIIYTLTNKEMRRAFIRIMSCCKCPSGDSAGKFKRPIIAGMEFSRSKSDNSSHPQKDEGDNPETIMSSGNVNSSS

SMILES: O=C(OCn1ncc(Br)c(Br)c1=O)c1ccccc1Cl
- EC50 [1]: 2.03 µM (active)
- AC50 [2]: 2 µM (active)
- CC50 [3]: 5.77 µM (active)
- EC50 [4]: 1.88 µM (active)
- AC50 [5]: 8.37 µM (active)
- IC50 [6]: 1.75 µM (active)
- CC50 [7]: 17.8 µM (active)
- CC50 [8]: 5.45 µM (active)
- EC50 (Protein RecA): 0.472 µM (active)
- IC50 (CHO): 1.46 µM (active)
- AC50 (INS1): 4.76 µM (active)
- IC50 (cells): 3.24 µM (active)
- IC50 (Beta Lactamase): > 49.8 µM (inactive)
- IC50 [9]: 15.3 µM (not active)
- CC50 (HeLa): > 1.22 µM (not active)

SMILES: Cc1cccc(NC2=NC(=O)/C(=C/C=C/c3ccco3)S2)c1C
- IC50 (NS3): 5.49 µM (active)
- CC50 [10]: 12.1 µM (active)

SMILES: COc1ccc(C(=O)NCC(C)(C)SCc2c(C)cc(C)cc2C)cc1
- IC50 [11]: 24.1 µM (active)
- IC50 [12]: > 50 µM (not active)

Source: ChEMBL document CHEMBL1201862, “PubChem BioAssay data set” (2004)
